Results on two compounds are retold here after US8816109B2, “Process for preparation of hexadecyl cis-9-tetradecenoate and hexadecyl cis-10-tetradecenoate” (Council of Scientific & Industrial Research, priority 2009, dated 2014).

Structures are written as SMILES.

The subject of experiment [1] is collagen-induced arthritis. To be noted: synthesized pure compound, DBA/1 Lac J mice; cited from earlier work.
For experiment [2], the system named is Freund's complete adjuvant induced arthritis. The experiment in a line: Freund's complete adjuvant induced arthritis model, treatment of established arthritis. The class given is in vivo, Male Wistar rats. The conditions noted are these: for dose dependence of inhibition of arthritis: dose increased from 100 mg/kg to 300 mg/kg. The protocol: (§1) The anti-inflammatory activity potential of both the isomers of the cetyl myristoleate (4 & 8) was evaluated initially in carrageenan induced rat paw edema model employing the method of Winter et al (Winter C A, Risley E A and Nuss G W, J. Pharmacolo. Exp. Ther. 1963; 141:369-376). The arthritis developed by injecting Freund's Complete Adjuvant in Wistar rats is almost similar to the rheumatoid arthritis of the human beings.
Effect of Hexadecyl cis-9-Tetradecenoate and Hexadecyl cis-10-Tetradecenoate on the Arthritic Rats: The hexadecyl cis-9-tetradecenoate, 4 and hexadecyl cis-10-tetradecenoate, 8 produced synthetically given above in Scheme 1 and 2 were subjected to evaluation for anti-arthritic potential in Freund's complete adjuvant induced arthritis model in rats. Male Wistar rats were divided into 4 groups each containing 6 rats. Arthritis was induced in rats in all the groups by administering Complete Freund's Adjuvant (CFA) at the dose of 1 mg per rat by injecting at sub plantar region of the right hind paw. Paw volumes were measured for both paws on every alternate day till 14 days and till full arthritis was developed.

For experiment [3], the system named is Freund's Complete Adjuvant induced poly arthritis. Description: Freund's complete adjuvant induced polyarthritis, protection (dosing from 24 hr after adjuvant). Type of experiment: in vivo, Male Wistar rats. The protocol: Evaluation of Hexadecyl cis-10-Tetradecenoate for Anti-arthritic Potential in Rats: The hexadecyl cis-10-tetradecenoate, 8 produced synthetically exemplified above in Scheme 2 was administered parenterally, particularly, by intraperitoneal route, either alone or in a compatible pharmaceutical carrier such as vegetable oils namely groundnut, sesame and cottonseed [for adjusting the dose volume of the active compound(s)] to male rats ranging in weight from 150 to 180 g. It should be noted that use of the mineral oil is not mandatory as the active compounds are oils themselves. The procedure as described in (Vogel's Drug Discovery and Evaluation Pharmacological assays, 2nd ed, 2002, Springer Verlag, pages 802-803) was followed. Male Wistar-rats were divided into one control and two treated groups. All the animals in three groups received Freund's complete adjuvant (1 mg/rat). This day was designated as day 1. After a period of 24 hr, hexadecyl cis-10-tetradecenoate, 8 was administered at a dose of 300 mg/kg to one treated group and another treated group received 2.5 mg/kg of indomethacin (used as standard drug). Dosing was continued for 15 days (FIG. 3). Control group received the vehicle (mineral oil) without any drug. Paw volumes (left and right) were measured on every alternate day.
All the rats in the control group developed severe polyarthritis as indicated by the increase in the paw volumes. […] Around 80% of the animals in the hexadecyl cis-10-tetradecenoate treated group were protected from developing arthritis in a period of 21 days. The remaining 20% rats were protected from arthritis in a period of 32 days.

For experiment [4], the system named is carrageenan induced paw edema. The experiment in a line: carrageenan induced rat paw edema model (anti-inflammatory potential). The class given is in vivo. To be noted: rats. Here is the method: as §1
Evaluation Studies of Hexadecyl cis-9-Tetradecenoate and Hexadecyl cis-10-Tetradecenoate for Anti-inflammatory. Potential: Hexadecyl cis-9-tetradecenoate, 4 and hexadecyl cis-10-tetradecenoate, 8 produced synthetically exemplified above in Scheme 1 and Scheme 2 were assessed for the anti-inflammatory potential against carrageenan induced paw edema model. Rats were divided into 4 groups. Hexadecyl cis-9-tetradecenoate, 4. and hexadecyl cis-10-tetradecenoate, 8 were administered intraperitoneally to rats in two different groups at a dose of 400 mg/kg. […] Paw volumes were measured using plethysmometer before injecting carrageenan. Paw volumes were again measured 3 hr after the carrageenan administration. The anti-inflammatory potential of hexadecyl cis-9-tetradecenoate, 4 and hexadecyl cis-10-tetradecenoate, 8 were assessed by measuring the inhibition of the paw volumes with reference to mean paw volume in control group.

On to `CCCC/C=C\CCCCCCCC(=O)OCCCCCCCCCCCCCCCC` [compound 4, hexadecyl cis-9-tetradecenoate], for which, in experiment [1], the anti arthritic properties result was “confirmed its anti arthritic properties”. In addition, the “dose dependence of inhibition of arthritis” value in experiment [2] is “dose dependent”.

Consider `CCC/C=C\CCCCCCCCC(=O)OCCCCCCCCCCCCCCCC` [compound 8, hexadecyl cis-10-tetradecenoate], for which the “animals protected from developing arthritis in a period of 21 days” value in experiment [3] (300 mg/kg intraperitoneal, dosing for 15 days) was “Around 80%”; in experiment [3] (300 mg/kg intraperitoneal, dosing for 15 days, listed as hexadecyl cis-10-tetradecenoate), 80%. Besides, the “remaining rats protected from arthritis in a period of 32 days” value in experiment [3] (300 mg/kg intraperitoneal, dosing for 15 days, period of 32 days) stood at 20%. In addition, in experiment [3] (300 mg/kg intraperitoneal, from 24 hr after adjuvant, dosing continued for 15 days), the “protection from polyarthritis (paw volumes)” value was “protected from the polyarthritis”. Besides, the “effective range (dose) for protection of arthritis” value in experiment [3] (rats, Freund's complete adjuvant) was 0.1 to 1.0 gm/kg body weight. For the same compound, the “inhibition of inflammation compared with hexadecyl cis-9-tetradecenoate, 4” value in experiment [4] is “comparable”. Moreover, the “dose dependence of inhibition of arthritis” value in experiment [2] is given as “dose dependent”. The “reduction of adjuvant-induced arthritis compared with hexadecyl cis-9-tetradecenoate, 4” value in experiment [2] (rats) is given as “comparable”.
